According to patent publication US20230077811A1, “ACTIVATION OF NEUROPEPTIDE RECEPTORS ON PLASMACYTOID DENDRITIC CELLS TO TREAT OR PREVENT OCULAR DISEASES ASSOCIATED WITH NEOVASCULARIZATION AND INFLAMMATION” (Tufts Medical Center, Inc., priority 2020, published 2023):
Like-named read-outs stand apart in the source and are kept apart here.

What was measured:
[1] = system: splenic pDCs; assay: Flow cytometry of splenic pDCs for ES and TSP-1 after 24 hours with neuropeptide receptor agonists; assay type: cell-based, C57BL/6 mice
[2] = system: NF-kB; assay: Immunofluorescence of NF-kB (RelB, c-Rel) nuclear localization in sorted pDCs treated with THIQ; assay type: cell-based, murine; settings: THIQ 10 ug/mL, 24 hours, compared to control pDCs
[3] = system: CNV in C57BL/6 to BALB/c corneal transplants; assay: High-risk corneal transplant model (C57BL/6 to BALB/c), CNV quantified by CD31 staining; assay type: in vivo, BALB/c mice; settings: subconjunctival THIQ (10 ug/mL) every other day for 14 days, versus saline
[4] = system: phospho-PKCδ/θ (Ser643/676); assay: Immunoblot of PKC isoform phosphorylation in FACS-sorted pDCs treated with THIQ; assay type: cell-based, murine
Procedure: Previous studies have shown the MC4 receptor to couple to all three major classes of G proteins, Gs, Gi/o, and Gq depending on cell type (Tao, Endocr. Rev. 31:506-543, 2010). To test pDC MC4 signaling, FACS-sorted pDCs were incubated with THIQ (10 ug/mL) for 5, 15, or 30 minutes. Protein kinase C (PKC) isoform phosphorylation was examined by phospho-PKC specific antibodies and immunoblotting. Specifically, Splenic pDCs were FACs sorted as previously described. Five hundred thousand pDCs were used per condition and lysed directly with chilled 1× radioimmunoprecipitation assay (RIPA) buffer or 1× Laemmli Buffer on ice. Samples were diluted in NuPAGE sample loading buffer (ThermoFisher) and 1× NuPAGE Sample Reducing Agent (ThermoFisher) and heated to 70° C. for 10 minutes. Protein lysates were resolved on a 10% Bis-Tris SDS gel (ThermoFisher) and transferred to a nitrocellulose membrane (ThermoFisher). Membranes were blocked with odyssey blocking buffer (Licor) for one hour and incubated with protein specific primary antibodies (1:100 or 1:200) overnight at 4° C. Membranes were washed with blocking buffer and secondary antibodies were diluted (1:5000 or 1:15000) and incubated with membranes for 60 minutes at room temperature. Membranes were imaged using an Odyssey® CLx Imaging System (Licor). Image analysis was done using Image Studio software. Protein sampling kits for PKC, and NF-κB signaling antibodies were purchased from Cell signaling (Phospho-PKC Antibody Sampler Kit #9921 and NF-κB Pathway Sampler Kit #9936).

[5] = system: murine pDCs; assay: Flow cytometry of murine pDCs incubated with THIQ for angiostatic proteins; assay type: cell-based; settings: THIQ 10 ug/mL
[6] = system: suture induced CNV; assay: Suture induced model of corneal neovascularization (CNV), CD31 whole mount quantification; assay type: in vivo, C57BL/6 mice
[7] = system: human corneal pDCs; assay: Flow cytometry of human corneal pDCs incubated with THIQ for angiostatic proteins; assay type: cell-based; settings: THIQ 10 ug/mL
From the text: Phenotypically murine and human pDCs express divergent sets of surface markers as reviewed by Rogers et al. (Rogers et al., Am. J. Transplant. 13:1125-1133, 2013). Human pDCs express the pan leukocyte marker CD45, BDCA2 (CD303), and BDCA4 (neuropilin-1). To examine the possibility that murine but not human pDCs express angiostatic molecules, human corneal eye bank research samples for ES, PF-4, TSP-1 and TIMP3 were examined. Human corneal tissues were obtained and processed by […] Eyebank (Ann Arbor, Mich., USA) according to a standardized eye banking protocols, and procedures. […] The exclusion criterion was tissue from donors with corneal neovascularization, or a history of diabetes, cancer, or keratitis. […] Pharmacol. Toxicol. 101:416-420, 2007; Sebhat et al., J. Med. Chem. 45:4589-4593, 2002) was utilized. The ability of THIQ (10 ug/mL) to impact murine and human pDCs was tested.

COC(=O)[C@H](CCCN=C(N)N)NC(=O)CCCc1c(-c2ccccc2)[nH]c2c(F)cc(F)cc12 [L-803,087]
pDC ES protein expression ([1]; 24 hours, compared to baseline): mixed impact
pDC TSP-1 protein expression ([1]; 24 hours, compared to baseline): mixed impact

O=C(N[C@H](Cc1ccc(Cl)cc1)C(=O)N1CCC(Cn2cncn2)(C2CCCCC2)CC1)[C@H]1Cc2ccccc2CN1 [THIQ, (3R)—N-[(2R)-3-(4-chlorophenyl)-1-[4-cyclohexyl-4-(1,2,4-triazol-1-ylmethyl)piperidin-1-yl]-1-oxopropan-2-yl]-1,2,3,4-tetrahydroisoquinoline-3-carboxamide]
RelB nuclear localization [2]: Increased
c-Rel nuclear localization [2]: not
CNV in corneal transplants [3]: reduced
Phosphorylation of additional PKC isoforms ([4]; THIQ 10 ug/mL, 5, 15 or 30 minutes): not observed
PKCδ/θ (Ser643/676) phosphorylation ([4]; THIQ 10 ug/mL, 15 minutes, normalized to actin): decreased
PKCδ/θ (Ser643/676) phosphorylation ([4]; THIQ 10 ug/mL, 30 minutes, normalized to actin): decreased
phospho-PKCδ/θ (Ser643/676) phosphorylation ([4]; THIQ 10 ug/mL, five minutes, normalized to actin): Increased
ES mean fluorescence intensity (MFI) [5]: increased
PF4 mean fluorescence intensity (MFI) [5]: increased
TIMP3 mean fluorescence intensity (MFI) [5]: increased
TSP-1 mean fluorescence intensity (MFI) [5]: increased
Reduction of suture induced CNV ([6]; subconjunctival injection of THIQ (10 ug/mL) every other day for 14 days, versus saline): 46%
CNV, MC4 siRNA with THIQ versus control siRNA ([6]; sutured C57BL/6, injected every other day for two weeks, THIQ together with siRNA against MC4): No statistical difference
ES mean fluorescence intensity (MFI) [7]: increased
PF4 mean fluorescence intensity (MFI) [7]: increased
TIMP3 mean fluorescence intensity (MFI) [7]: increased
TSP-1 mean fluorescence intensity (MFI) [7]: increased

Dynorphin A
pDC ES protein expression [1]: increased
pDC TSP-1 protein expression [1]: increased
